These results are taken from patent publication US11427581B2, “JAK inhibitor and use thereof” (ZHUHAI UNITED LABORATORIES CO., LTD., priority 2018, dated 2022).

As a reminder, the IC50 is the point on the concentration scale where inhibition reaches its midpoint.

JAK1 (h), sequence (P23458 whole entry): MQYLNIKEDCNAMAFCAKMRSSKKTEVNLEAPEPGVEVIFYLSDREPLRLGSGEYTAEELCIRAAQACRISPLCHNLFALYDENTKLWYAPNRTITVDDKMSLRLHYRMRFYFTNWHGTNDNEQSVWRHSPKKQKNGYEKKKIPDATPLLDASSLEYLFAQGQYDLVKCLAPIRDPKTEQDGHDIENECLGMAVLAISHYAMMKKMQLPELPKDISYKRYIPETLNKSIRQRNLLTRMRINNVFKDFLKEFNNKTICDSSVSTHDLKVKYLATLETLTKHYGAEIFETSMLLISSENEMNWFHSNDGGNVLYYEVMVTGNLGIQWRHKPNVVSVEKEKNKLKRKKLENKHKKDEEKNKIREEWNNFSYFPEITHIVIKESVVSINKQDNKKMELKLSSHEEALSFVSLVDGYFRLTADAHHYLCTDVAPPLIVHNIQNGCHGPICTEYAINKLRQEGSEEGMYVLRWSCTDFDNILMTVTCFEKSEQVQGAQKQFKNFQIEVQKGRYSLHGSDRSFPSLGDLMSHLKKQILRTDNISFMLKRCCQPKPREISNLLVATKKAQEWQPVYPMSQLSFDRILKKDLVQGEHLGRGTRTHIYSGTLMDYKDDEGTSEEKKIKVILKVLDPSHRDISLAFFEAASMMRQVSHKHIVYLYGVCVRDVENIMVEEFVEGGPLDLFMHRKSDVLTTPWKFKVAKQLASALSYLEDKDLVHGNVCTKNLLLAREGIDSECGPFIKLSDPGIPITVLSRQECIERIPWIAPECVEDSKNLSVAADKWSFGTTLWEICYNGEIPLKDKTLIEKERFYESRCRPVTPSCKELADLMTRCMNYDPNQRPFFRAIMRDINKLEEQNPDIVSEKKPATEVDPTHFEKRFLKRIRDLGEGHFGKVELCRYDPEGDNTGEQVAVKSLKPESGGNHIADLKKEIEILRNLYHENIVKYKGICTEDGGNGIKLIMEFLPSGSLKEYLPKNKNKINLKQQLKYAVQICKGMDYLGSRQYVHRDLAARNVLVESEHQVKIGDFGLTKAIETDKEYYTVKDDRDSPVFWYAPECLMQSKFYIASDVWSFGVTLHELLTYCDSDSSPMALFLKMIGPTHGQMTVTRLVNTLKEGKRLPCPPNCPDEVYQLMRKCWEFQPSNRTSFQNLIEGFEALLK
TYK2 (h), sequence (P29597 whole entry): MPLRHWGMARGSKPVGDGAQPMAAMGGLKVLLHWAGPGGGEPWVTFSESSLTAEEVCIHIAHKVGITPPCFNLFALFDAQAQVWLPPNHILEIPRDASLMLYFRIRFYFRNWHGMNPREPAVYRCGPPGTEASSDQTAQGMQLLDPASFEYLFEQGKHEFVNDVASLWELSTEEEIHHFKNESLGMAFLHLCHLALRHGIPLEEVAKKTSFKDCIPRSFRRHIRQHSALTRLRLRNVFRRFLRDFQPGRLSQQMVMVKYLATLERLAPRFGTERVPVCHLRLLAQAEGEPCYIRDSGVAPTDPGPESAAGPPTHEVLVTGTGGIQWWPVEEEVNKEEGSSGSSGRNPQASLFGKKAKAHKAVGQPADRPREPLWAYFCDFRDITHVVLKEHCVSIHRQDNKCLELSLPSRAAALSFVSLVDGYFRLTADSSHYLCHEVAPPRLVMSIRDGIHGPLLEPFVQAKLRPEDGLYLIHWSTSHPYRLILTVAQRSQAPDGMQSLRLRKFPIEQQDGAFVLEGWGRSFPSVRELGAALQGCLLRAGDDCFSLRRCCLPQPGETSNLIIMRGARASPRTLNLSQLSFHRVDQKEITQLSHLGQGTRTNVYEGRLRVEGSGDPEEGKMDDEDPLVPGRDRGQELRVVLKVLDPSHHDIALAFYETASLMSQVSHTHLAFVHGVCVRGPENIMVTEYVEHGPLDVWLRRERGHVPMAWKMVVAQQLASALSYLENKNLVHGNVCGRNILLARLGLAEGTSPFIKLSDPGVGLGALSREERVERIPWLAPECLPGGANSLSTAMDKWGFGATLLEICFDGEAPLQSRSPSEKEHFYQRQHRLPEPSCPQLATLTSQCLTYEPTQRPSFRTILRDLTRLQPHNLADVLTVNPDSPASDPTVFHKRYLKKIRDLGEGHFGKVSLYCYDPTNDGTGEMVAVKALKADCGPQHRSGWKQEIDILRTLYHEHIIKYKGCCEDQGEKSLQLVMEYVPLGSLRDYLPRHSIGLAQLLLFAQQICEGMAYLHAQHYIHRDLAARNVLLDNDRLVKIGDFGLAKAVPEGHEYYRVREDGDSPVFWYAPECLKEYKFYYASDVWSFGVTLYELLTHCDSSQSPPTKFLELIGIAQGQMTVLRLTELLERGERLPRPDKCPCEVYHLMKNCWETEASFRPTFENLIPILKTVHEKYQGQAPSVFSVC
JAK2 (h), sequence (O60674 whole entry): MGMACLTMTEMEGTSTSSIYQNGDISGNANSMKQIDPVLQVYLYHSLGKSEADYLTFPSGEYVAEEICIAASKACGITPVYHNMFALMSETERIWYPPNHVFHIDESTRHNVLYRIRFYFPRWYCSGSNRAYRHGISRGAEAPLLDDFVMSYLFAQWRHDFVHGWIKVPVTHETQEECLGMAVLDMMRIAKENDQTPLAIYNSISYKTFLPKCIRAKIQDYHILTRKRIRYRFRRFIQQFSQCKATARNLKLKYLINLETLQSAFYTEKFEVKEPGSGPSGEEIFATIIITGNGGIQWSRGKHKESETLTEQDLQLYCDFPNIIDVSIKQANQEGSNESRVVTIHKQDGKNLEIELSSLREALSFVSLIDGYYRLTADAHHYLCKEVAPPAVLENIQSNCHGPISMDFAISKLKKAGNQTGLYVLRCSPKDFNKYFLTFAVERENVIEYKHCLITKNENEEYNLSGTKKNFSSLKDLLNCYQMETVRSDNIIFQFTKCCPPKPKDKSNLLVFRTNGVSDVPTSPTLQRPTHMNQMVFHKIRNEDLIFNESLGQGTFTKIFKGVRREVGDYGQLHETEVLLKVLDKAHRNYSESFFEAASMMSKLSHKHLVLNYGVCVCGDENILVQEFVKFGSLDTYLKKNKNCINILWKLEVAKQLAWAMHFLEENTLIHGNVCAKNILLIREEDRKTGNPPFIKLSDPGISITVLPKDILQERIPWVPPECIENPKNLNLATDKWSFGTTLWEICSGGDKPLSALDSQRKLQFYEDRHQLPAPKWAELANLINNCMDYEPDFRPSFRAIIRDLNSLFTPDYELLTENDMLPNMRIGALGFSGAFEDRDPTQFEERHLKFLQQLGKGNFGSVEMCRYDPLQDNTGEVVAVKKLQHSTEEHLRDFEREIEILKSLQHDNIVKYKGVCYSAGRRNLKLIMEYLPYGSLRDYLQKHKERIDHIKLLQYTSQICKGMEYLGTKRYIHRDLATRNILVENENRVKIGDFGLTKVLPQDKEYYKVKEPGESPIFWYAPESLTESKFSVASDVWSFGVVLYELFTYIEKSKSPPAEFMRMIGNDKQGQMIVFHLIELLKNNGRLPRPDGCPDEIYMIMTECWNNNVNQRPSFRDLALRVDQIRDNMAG
JAK3 (h), sequence (P52333 whole entry): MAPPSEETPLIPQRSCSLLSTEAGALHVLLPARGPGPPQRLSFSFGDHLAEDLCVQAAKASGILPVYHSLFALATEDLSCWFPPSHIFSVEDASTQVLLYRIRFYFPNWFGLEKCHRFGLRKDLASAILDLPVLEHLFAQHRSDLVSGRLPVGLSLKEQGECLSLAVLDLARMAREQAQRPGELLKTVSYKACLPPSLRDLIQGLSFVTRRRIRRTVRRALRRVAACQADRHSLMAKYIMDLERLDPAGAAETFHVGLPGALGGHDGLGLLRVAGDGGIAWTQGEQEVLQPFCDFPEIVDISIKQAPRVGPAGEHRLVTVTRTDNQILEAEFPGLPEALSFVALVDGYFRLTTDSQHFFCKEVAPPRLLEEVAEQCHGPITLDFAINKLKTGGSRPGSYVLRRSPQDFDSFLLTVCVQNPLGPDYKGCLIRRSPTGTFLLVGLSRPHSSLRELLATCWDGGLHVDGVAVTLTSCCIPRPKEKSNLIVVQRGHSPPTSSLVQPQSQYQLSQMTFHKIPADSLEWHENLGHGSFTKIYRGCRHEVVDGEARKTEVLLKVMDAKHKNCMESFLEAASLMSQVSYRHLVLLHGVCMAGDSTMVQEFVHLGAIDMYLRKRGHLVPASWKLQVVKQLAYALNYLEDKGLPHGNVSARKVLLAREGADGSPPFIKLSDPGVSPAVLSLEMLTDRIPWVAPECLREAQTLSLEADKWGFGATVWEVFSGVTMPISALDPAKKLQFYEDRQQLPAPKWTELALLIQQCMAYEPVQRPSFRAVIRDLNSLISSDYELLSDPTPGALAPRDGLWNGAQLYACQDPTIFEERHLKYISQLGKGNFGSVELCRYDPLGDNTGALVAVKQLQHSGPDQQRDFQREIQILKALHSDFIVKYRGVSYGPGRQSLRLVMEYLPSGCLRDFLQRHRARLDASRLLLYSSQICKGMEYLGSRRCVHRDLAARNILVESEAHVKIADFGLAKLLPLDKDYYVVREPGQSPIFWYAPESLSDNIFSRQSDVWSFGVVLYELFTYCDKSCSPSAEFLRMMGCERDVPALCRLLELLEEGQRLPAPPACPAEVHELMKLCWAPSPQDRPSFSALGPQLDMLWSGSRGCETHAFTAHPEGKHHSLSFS

One data set has as its target JAK3 (h) (Homo sapiens (Human), UniProt P52333). Description: In vitro activity assay of JAK3 kinase (radiometric 33P-ATP, Eurofins). The class given is biochemical. The settings on record: recombinant human JAK3. As to the method:
(§1) Recombinant human-derived JAK1, JAK2, JAK3, Tyk2 protease, main instruments and reagents were provided by Eurofins in the UK
(§2) JAK2, JAK3 and TYK2 dilution: 20 mM MOPS, 1 mM EDTA, 0.01% Brij-35.5% glycerol, 0.1% β-mercaptoethanol. 1 mg/mL BSA; JAK1 dilution: 20 mM TRIS, 0.2 mM EDTA, 0.1% β-mercaptoethanol, 0.01% Brij-35.5% glycerol. All compounds were prepared as 100% DMSO solutions, and the concentration of the compound reached 50 times the final measured concentration. The test compound was diluted with a 3-fold concentration gradient, the final concentration was 10 μM to 0.001 μM in total 9 concentrations, and the content of DMSO in the detection reaction was 2%. The working stock solution of the compound was added to the wells as the first component of the reaction, and then the remaining components were added according to the protocol detailed below.
JAK3 (h) was incubated with 8 mM MOPS pH 7.0, 0.2 mM EDTA, 500 μM […], 10 mM magnesium acetate and [γ-^33P]-ATP (activity and concentration were formulated as needed). Mg/ATP mixture was added to initiate the reaction. After incubating at room temperature for 40 minutes, the reaction mixture was added with 0.5% phosphoric acid to stop the reaction. Then 10 μL the reaction solution was spotted on a P30 filter pad and washed with 0.425% phosphoric acid three times and methanol once over 4 minutes, dried, and counted scintillation.
(§3) The IC50 results were analyzed by XLFIT5 (205 formula) of IDBS Company, see Table 1 for details.
With `O=C(Nc1nc2cccc(C3=CC[C@H](NC(=O)[C@H]4CC4(F)F)CC3)n2n1)C1CC1` [Compound 3-4], the IC50 stood at 2550 nM.
Still for that read-out and setting: under `O=C(Nc1nc2cccc(C3CCC(NC(=O)[C@@H]4CC4(F)F)CC3)n2n1)C1CC1` (single isomer, unassigned) [Compound 8-3] stands above 10000 nM.
`O=C(Nc1nc2cccc(C3=CC[C@@H](NC(=O)[C@@H]4CC4(F)F)CC3)n2n1)C1CC1` [Compound 3-1]: the IC50 stood at 5520 nM.
As to `O=C(Nc1nc2cccc(C3=CCN(C(=O)C4CC4)CC3)n2n1)C1CC1` [Compound 5-4], the IC50 was above 10000 nM.
In the case of `O=C(Nc1nc2cccc(C3CCC(NC(=O)C4CC4(F)F)CC3)n2n1)C1CC1` (stereo not shown) [Compound 4-2], the IC50 amounted to 2050 nM.
Take `O=C(Nc1nc2cccc(C3CCC(NC(=O)[C@@H]4CC4(F)F)CC3)n2n1)C1CC1` (single isomer, unassigned) [Compound 8-1]: the IC50 is above 10000 nM.
The same measure, in the same setting: under `O=C(Nc1nc2cccc(C3=CCN(C(=O)C4(F)CC4)C3)n2n1)C1CC1` [Compound 6-2] stands above 10000 nM; under `O=C(Nc1nc2nccc(C3CCC(NC(=O)C4CC4(F)F)CC3)c2s1)C1CC1` (stereo not shown) [Compound 10-9], above 10000 nM.

Another data set addresses JAK1 (h) (Homo sapiens (Human), UniProt P23458). Kind of data set: In vitro activity assay of JAK1 kinase (radiometric 33P-ATP, Eurofins). In kind it is biochemical. The conditions noted are these: recombinant human JAK1.
For `O=C(Nc1nc2cccc(C3=CC[C@H](NC(=O)[C@H]4CC4(F)F)CC3)n2n1)C1CC1` [Compound 3-4], the IC50 stood at 17 nM.
On to `O=C(Nc1nc2cccc(C3CCC(NC(=O)[C@@H]4CC4(F)F)CC3)n2n1)C1CC1` (single isomer, unassigned) [Compound 8-3], for which the half-maximal inhibitory concentration (IC50) was determined as 494 nM.
On to `O=C(Nc1nc2cccc(C3=CCN(C(=O)C4CC4)CC3)n2n1)C1CC1` [Compound 5-4], for which the IC50 amounted to 90 nM.
As for `O=C(Nc1nc2cccc(C3CCC(NC(=O)[C@@H]4CC4(F)F)CC3)n2n1)C1CC1` (single isomer, unassigned) [Compound 8-1], the IC50 was 111 nM.
Turning to `O=C(Nc1nc2cccc(C3=CCN(C(=O)C4(F)CC4)C3)n2n1)C1CC1` [Compound 6-2], the IC50 came out at 531 nM.
As for `O=C(Nc1nc2nccc(C3CCC(NC(=O)C4CC4(F)F)CC3)c2s1)C1CC1` (stereo not shown) [Compound 10-9], the IC50 worked out at 2290 nM.

Test system in the next data set: not listed separately
Description: Pharmacokinetic (PK) assay in rat. In kind it is in vivo. The settings on record: male SD rat; gavage vs tail vein. As to the method: The clear solution obtained by dissolving the test compound was injected into male mice (C57BL/6) or rats (SD) by tail vein and gavage respectively (overnight fasting, 7-8 weeks old). […] The drug concentration on blood was determined by LC-MS/MS, the related pharmacokinetic parameters were calculated by the linear logarithm trapezoid method of non atrioventricular model by WinNonlin™ Version 6.3.
`O=C(Nc1nc2cccc(C3=CC[C@@H](NC(=O)[C@@H]4CC4(F)F)CC3)n2n1)C1CC1` [Compound 3-1] gave a Bioavailability of 30.0%.
`O=C(Nc1nc2cccc(C3CCC(NC(=O)C4CC4(F)F)CC3)n2n1)C1CC1` (stereo not shown) [Compound 4-2] gave a Bioavailability of 58.6%.

The same data set, now with this note: male SD rat; tail vein and gavage groups, route of the parameter and dose not given.
With `O=C(Nc1nc2cccc(C3=CC[C@@H](NC(=O)[C@@H]4CC4(F)F)CC3)n2n1)C1CC1` [Compound 3-1], the AUC0-inf is 19.967 µM·h and the “T1/2 (half-life)” value was 3.11 h.
The like results for `O=C(Nc1nc2cccc(C3CCC(NC(=O)C4CC4(F)F)CC3)n2n1)C1CC1` (stereo not shown) [Compound 4-2] were, in that order, 11.021 µM·h and 2.22 h.

Staying with this data set, now noted: male SD rat; tail vein and gavage groups, route of the parameter and dose not given; read-out: Cmax (peak concentration).
Consider `O=C(Nc1nc2cccc(C3=CC[C@@H](NC(=O)[C@@H]4CC4(F)F)CC3)n2n1)C1CC1` [Compound 3-1], for which the Cmax came to 3.8 µM.
The same measure, in the same setting: then `O=C(Nc1nc2cccc(C3CCC(NC(=O)C4CC4(F)F)CC3)n2n1)C1CC1` (stereo not shown) [Compound 4-2], with 13.4 µM.

The next data set concerns the target JAK2 (h) (Homo sapiens (Human), UniProt O60674). Kind of data set: In vitro activity assay of JAK2 kinase (radiometric 33P-ATP, Eurofins). In kind it is biochemical. The conditions noted are these: recombinant human JAK2.
Turning to `O=C(Nc1nc2cccc(C3=CC[C@H](NC(=O)[C@H]4CC4(F)F)CC3)n2n1)C1CC1` [Compound 3-4], the IC50 is 126 nM.
For the molecule `O=C(Nc1nc2cccc(C3CCC(NC(=O)[C@@H]4CC4(F)F)CC3)n2n1)C1CC1` (single isomer, unassigned) [Compound 8-3], the half-maximal inhibitory concentration (IC50) came out at 5770 nM.
As to `O=C(Nc1nc2cccc(C3=CC[C@@H](NC(=O)[C@@H]4CC4(F)F)CC3)n2n1)C1CC1` [Compound 3-1], the IC50 stood at 141 nM.
As to `O=C(Nc1nc2cccc(C3=CCN(C(=O)C4CC4)CC3)n2n1)C1CC1` [Compound 5-4], the IC50 stood at 422 nM.
Turning to `O=C(Nc1nc2cccc(C3CCC(NC(=O)[C@@H]4CC4(F)F)CC3)n2n1)C1CC1` (single isomer, unassigned) [Compound 8-1], the IC50 was determined as 861 nM.
Still for that read-out and setting: under `O=C(Nc1nc2cccc(C3=CCN(C(=O)C4(F)CC4)C3)n2n1)C1CC1` [Compound 6-2] stands 1120 nM; under `O=C(Nc1nc2nccc(C3CCC(NC(=O)C4CC4(F)F)CC3)c2s1)C1CC1` (stereo not shown) [Compound 10-9], above 10000 nM.

The next data set has as its target TYK2 (h) (Homo sapiens (Human), UniProt P29597). Kind of data set: In vitro activity assay of TYK2 kinase (radiometric 33P-ATP, Eurofins). In kind it is biochemical. The settings on record: recombinant human TYK2. On the procedure: as §1, §2
TYK2 (h) was incubated with 8 mM MOPS pH 7.0, 0.2 mM EDTA, 250 μM […], 10 mM magnesium acetate and [γ-^33P]-ATP (activity and concentration were formulated as needed). Mg/ATP mixture was added to initiate the reaction. After incubating at room temperature for 40 minutes, the reaction mixture was added with 0.5% phosphoric acid to stop the reaction. Then 10 μL reaction was spotted on a P30 filter pad and washed with 0.425% phosphoric acid three times and methanol once over 4 minutes, dried, and counted scintillation.
as §3
Turning to `O=C(Nc1nc2cccc(C3=CC[C@H](NC(=O)[C@H]4CC4(F)F)CC3)n2n1)C1CC1` [Compound 3-4], the IC50 is 71 nM.
On the same count and under the same terms, then `O=C(Nc1nc2cccc(C3CCC(NC(=O)[C@@H]4CC4(F)F)CC3)n2n1)C1CC1` (single isomer, unassigned) [Compound 8-3], with 3440 nM; and `O=C(Nc1nc2cccc(C3=CC[C@@H](NC(=O)[C@@H]4CC4(F)F)CC3)n2n1)C1CC1` [Compound 3-1], with 78 nM; and `O=C(Nc1nc2cccc(C3=CCN(C(=O)C4CC4)CC3)n2n1)C1CC1` [Compound 5-4], with 178 nM.
On to `O=C(Nc1nc2cccc(C3CCC(NC(=O)C4CC4(F)F)CC3)n2n1)C1CC1` (stereo not shown) [Compound 4-2], for which the IC50 is 10 nM.
On to `O=C(Nc1nc2cccc(C3CCC(NC(=O)[C@@H]4CC4(F)F)CC3)n2n1)C1CC1` (single isomer, unassigned) [Compound 8-1], for which the IC50 turned out to be 633 nM.
On to `O=C(Nc1nc2cccc(C3=CCN(C(=O)C4(F)CC4)C3)n2n1)C1CC1` [Compound 6-2], for which the IC50 was 2870 nM.
The same measure, in the same setting: then `O=C(Nc1nc2nccc(C3CCC(NC(=O)C4CC4(F)F)CC3)c2s1)C1CC1` (stereo not shown) [Compound 10-9], with 245 nM.
